Source: patent US9284333B2, “Fused pyrroledicarboxamides and their use as pharmaceuticals” (SANOFI, priority 2012, dated 2016)

What was measured:
[1] = target: Human TASK-1 channels (Homo sapiens (Human), UniProt O14649); experiment: Determination of the activity on the TASK-1 channel in Xenopus oocytes (two-microelectrode voltage clamp); assay type: cell-based; conditions: for IC50: human TASK-1 expressed in Xenopus oocytes, room temperature, read-out: IC50 value for TASK-1 inhibition; for inhibition at 5 µM: compound concentration 5 μM
Sequence of Human TASK-1 channels (O14649 whole entry): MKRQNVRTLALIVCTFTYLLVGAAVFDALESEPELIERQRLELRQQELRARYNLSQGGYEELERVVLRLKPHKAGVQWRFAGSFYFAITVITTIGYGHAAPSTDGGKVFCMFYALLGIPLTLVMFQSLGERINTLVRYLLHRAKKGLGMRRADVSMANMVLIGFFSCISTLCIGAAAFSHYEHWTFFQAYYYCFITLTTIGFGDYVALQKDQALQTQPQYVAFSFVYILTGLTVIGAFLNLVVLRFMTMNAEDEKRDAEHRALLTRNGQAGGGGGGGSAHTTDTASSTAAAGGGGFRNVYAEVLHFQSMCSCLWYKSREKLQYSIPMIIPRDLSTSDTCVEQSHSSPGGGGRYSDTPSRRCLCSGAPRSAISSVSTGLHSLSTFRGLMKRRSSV
How it was run: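 Current during 500 ms pulses to 40 mV from a −90 mV hold was recorded in oocytes expressing human TASK-1 for two days after cRNA injection. Compounds were added cumulatively to the ND96 bath (pH 7.4, room temperature). IC50 came from dose-response fitting of inhibition relative to pre-compound current.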

[2] = system: atrium of the anesthetized pig; experiment: Investigation of the refractory period and the left-atrial vulnerability in the anesthetized pig; assay type: in vivo; conditions: Sus scrofa, iv
Protocol: Investigation of the Refractory Period and the Left-Atrial Vulnerability in the Pig
The compounds were tested for prolongation of the refractory period and antiarrhythmic activity on the atrium of the anesthetized pig as described in Knobloch K. et al., Naunyn-Schmiedeberg's Arch. Pharmacol. 2002, 366, 482-487. Here the anti-arrhythmic action relates to the inhibition of the occurrence of episodes of atrial arrhythmias which are induced by a prematurely placed extra-stimulus (S2) in the left atrium (=left-atrial vulnerability). The prolongation of the refractory period (refractoriness) is expressed as the increase in percent of the value of the refractory period 15 min after the end of administration of the test compound vs. the basal value before administration. Mean values of the prolongation of the refractory period are shown from three rates (150/min, 200/min and 250/min). The values for the inhibition of left atrial vulnerability (inhibition of episodes of arrhythmias) in percent refer to three measurements (three time points) before administration of the test compound vs. at least three measurements during the first hour after administration.
In Table 16, the action of compounds of the formula I from the examples above on the refractory period of the left atrium and their antiarrhythmic activity in the anesthetized pig after intravenous (i.v.) administration of the described dose is shown.

Row | SMILES | IC50 [1] [µM] | inhibition at 5 µM [1] [%] | also measured
1 | CC[C@H](NC(=O)c1cc(C(=O)N[C@H](C)c2ccc(F)cc2)n2c1COCC2)c1ncccn1 [16h, 3,4-Dihydro-1H-pyrrolo[2,1-c][1,4]oxazine-6,8-dicarboxylic acid 6-{[(R)-1-(4-fluoro-phenyl)-ethyl]-amide} 8-[((S)-1-pyrimidin-2-yl-propyl)amide]] | 0.24 | – | inhibition in vivo at 0.1 mg/kg ([2]; 0.1 mg/kg i.v. infusion over 1 h): 97%; change in vivo at 0.1 mg/kg ([2]; 0.25 h, 0.1 mg/kg i.v. infusion over 1 h, read-out: % Prolongation of left atrial refractory period): 42%
2 | CC[C@@H](NC(=O)c1cc(C(=O)N[C@H](C)c2ccc(F)cc2)n2c1COCC2)c1ccc(C(F)(F)F)nc1 [16g, 3,4-Dihydro-1H-pyrrolo[2,1-c][1,4]oxazine-6,8-dicarboxylic acid 6-{[(R)-1-(4-fluoro-phenyl)-ethyl]-amide} 8-{[(R)-1-(6-trifluoromethyl-pyridin-3-yl)-propyl]-amide}] | 0.29 | – | inhibition in vivo at 0.3 mg/kg ([2]; 0.3 mg/kg i.v. bolus injection): 100%; change in vivo at 0.3 mg/kg ([2]; 0.25 h, 0.3 mg/kg i.v. bolus injection, 15 min after administration vs basal, mean of three rates, read-out: % Prolongation of left atrial refractory period): 19%
3 | CC[C@@H](NC(=O)c1cc(C(=O)N2CCC[C@H]2C(C)C)c2n1CCOC2)c1ccccc1 [16km, 8-((S)-2-Isopropyl-pyrrolidine-1-carbonyl)-3,4-dihydro-1H-pyrrolo[2,1-c][1,4]oxazine-6-carboxylic acid ((R)-1-phenyl-propyl)-amide] | 0.39 | – | –
4 | C[C@@H](NC(=O)c1cc(C(=O)NCC(F)(F)F)c2n1CCOC2)c1ccc(F)cc1 [16dr, 3,4-Dihydro-1H-pyrrolo[2,1-c][1,4]oxazine-6,8-dicarboxylic acid 6-{[(R)-1-(4-fluoro-phenyl)-ethyl]-amide} 8-[(2,2,2-trifluoro-ethyl)-amide]] | – | 84 | –
5 | CC[C@@H](NC(=O)c1cc(C(=O)NC(C)c2ncccn2)c2n1CCOC2)c1ccccc1 (mixture of isomers) [16ka, 3,4-Dihydro-1H-pyrrolo[2,1-c][1,4]oxazine-6,8-dicarboxylic acid 6-[((R)-1-phenyl-propyl)-amide] 8-[(1-pyrimidin-2-yl-ethyl)-amide]] | 0.46 | – | –
6 | CC[C@H](NC(=O)c1cc(C(=O)N2CCC[C@@H]2C)n2c1COCC2)c1cnc(C(F)(F)F)cc1Cl [16bs, 6-((S)-2-Methyl-pyrrolidine-1-carbonyl)-3,4-dihydro-1H-pyrrolo[2,1-c][1,4]oxazine-8-carboxylic acid [(S)-1-(4-chloro-6-trifluoromethyl-pyridin-3-yl)-propyl]-amide] | – | 80 | –
7 | CC[C@@H](NC(=O)c1cc(C(=O)N2CCC[C@@H]2C)n2c1COCC2)c1cccc(OC)n1 [16z, 6-((S)-2-Methyl-pyrrolidine-1-carbonyl)-3,4-dihydro-1H-pyrrolo[2,1-c][1,4]oxazine-8-carboxylic acid [(R)-1-(6-methoxy-pyridin-2-yl)-propyl]-amide] | 0.27 | – | –
8 | CC[C@@H](NC(=O)c1cc(C(=O)N2CCC[C@@H]2C#N)n2c1COCC2)c1ccccc1 [16fm, 6-((R)-2-Cyano-pyrrolidine-1-carbonyl)-3,4-dihydro-1H-pyrrolo[2,1-c][1,4]oxazine-8-carboxylic acid ((R)-1-phenyl-propyl)-amide] | 0.21 | – | –
9 | CC[C@@H](NC(=O)c1cc(C(=O)N2CCC[C@@H]2C)n2c1COCC2)c1ccc(C(F)(F)F)c(F)c1 [16bm, 6-((S)-2-Methyl-pyrrolidine-1-carbonyl)-3,4-dihydro-1H-pyrrolo[2,1-c][1,4]oxazine-8-carboxylic acid [(R)-1-(3-fluoro-4-trifluoromethyl-phenyl)-propyl]-amide] | 0.093 | – | –
10 | CC[C@@H](NC(=O)c1cc(C(=O)N2CCC[C@@H]2C)n2c1COCC2)c1cnc(OC)c(C(F)(F)F)c1 [16cn, 6-((S)-2-Methyl-pyrrolidine-1-carbonyl)-3,4-dihydro-1H-pyrrolo[2,1-c][1,4]oxazine-8-carboxylic acid [(R)-1-(6-methoxy-5-trifluoromethyl-pyridin-3-yl)-propyl]-amide] | 0.1 | – | –
11 | CC[C@@H](NC(=O)c1cc(C(=O)N2CCC[C@@H]2C)n2c1COCC2)c1ccc(C(F)(F)F)cc1F [16ct, 6-((S)-2-Methyl-pyrrolidine-1-carbonyl)-3,4-dihydro-1H-pyrrolo[2,1-c][1,4]oxazine-8-carboxylic acid [(R)-1-(2-fluoro-4-trifluoromethyl-phenyl)-propyl]-amide] | 0.21 | – | –
12 | CC(C)[C@@H](NC(=O)c1cc(C(=O)NCc2ncco2)c2n1CCOC2)c1ccc(F)cc1 [16ll, 3,4-Dihydro-1H-pyrrolo[2,1-c][1,4]oxazine-6,8-dicarboxylic acid 6-{[(R)-1-(4-fluoro-phenyl)-2-methyl-propyl]-amide} 8-[(oxazol-2-ylmethyl)-amide]] | – | 86 | –
13 | C[C@H]1CCCN1C(=O)c1cc(C(=O)NCc2ccccc2Cl)c2n1CCOC2 [16an, 6-((S)-2-Methyl-pyrrolidine-1-carbonyl)-3,4-dihydro-1H-pyrrolo[2,1-c][1,4]oxazine-8-carboxylic acid 2-chloro-benzylamide] | – | 81 | –
14 | CC[C@@H](NC(=O)c1cc(C(=O)N2CCC[C@@H]2C)n2c1COCC2)c1ccc(F)c(Cl)c1 [16cg, 6-((S)-2-Methyl-pyrrolidine-1-carbonyl)-3,4-dihydro-1H-pyrrolo[2,1-c][1,4]oxazine-8-carboxylic acid [(R)-1-(3-chloro-4-fluoro-phenyl)-propyl]-amide] | 0.015 | – | –
15 | CC[C@@H](NC(=O)c1cc(C(=O)N(CCO)CC2CC2)n2c1COCC2)c1ccccc1 [16hk, 3,4-Dihydro-1H-pyrrolo[2,1-c][1,4]oxazine-6,8-dicarboxylic acid 6-[cyclopropylmethyl-(2-hydroxy-ethyl)-amide] 8-[((R)-1-phenyl-propyl)-amide]] | 1.4 | – | –
16 | CC(c1ncccn1)N(CC1CC1)C(=O)c1cc(C(=O)N[C@H](C)c2ccc(F)cc2)n2c1COCC2 (stereo partly drawn) [16ea, 3,4-Dihydro-1H-pyrrolo[2,1-c][1,4]oxazine-6,8-dicarboxylic acid 8-[cyclopropylmethyl-(1-pyrimidin-2-yl-ethyl)-amide] 6-{[(R)-1-(4-fluoro-phenyl)-ethyl]-amide}] | – | 72 | –
